# Tests used:
# Type in all cases: physicochemical
# [1] = Evaluation of absorption spectrum (maximal absorption wavelength in chloroform solution); details: for λmax (maximal absorption wavelength): chloroform solution, 3.0×10^−5 mol/L, 1 mm quartz cell; for Near infrared absorbing property: grade of λmax in chloroform solution
# Method: The specific compound is diluted with chloroform to a concentration of […], and an absorbance of the obtained sample solution is measured with a spectrophotometer (UV-3600 Plus, manufactured by Shimadzu Corporation) using a 1 mm quartz cell. A maximal absorption wavelength (Amax) is measured from an absorption spectrum of the sample solution.
# For each of Exemplary Compounds shown in Tables 1 and 2, a sample solution was prepared by diluting the compound with chloroform to a concentration of 3.0×10^−5 mol/L, and near infrared absorbability was evaluated.
# For each sample solution, an absorbance was measured in a 1 mm quartz cell using a spectrophotometer (UV-3600 Plus, manufactured by Shimadzu Corporation).
# A maximal absorption wavelength (Amax) was measured from the absorption spectrum of each sample solution. The results are shown in Tables 1 and 2, and the wavelength of Amax was evaluated according to the following standard.
# • A: Amax was 1,150 nm or more. • B: Amax was less than 1,150 nm.
# [2] = Evaluation of solubility in methyl ethyl ketone (MEK); details: stirred at room temperature for 30 minutes
# Method: For each of Exemplary Compounds shown in Tables 1 and 2, a predetermined amount of the compound was added to a solvent of methyl ethyl ketone (MEK), and solubility was evaluated according to the following standard by stirring the mixture at room temperature for 30 minutes.
# • A: 1 g or more of the compound was stably dissolved in 300 g of MEK. • B: 1 g was not dissolved in 300 g of MEK. • X: decomposition was observed by measuring the absorption spectrum after the dissolution.
# [3] = Evaluation of heat stability of polystyrene resin film (hot plate 180° C., 5 minutes); details: polystyrene resin film on glass, hot plate 180° C. for 5 minutes, absorbance reduction rate at λmax
# Method: 30 mg of each of Exemplary Compounds and the comparative compounds described in the tables was dissolved in 8.9 g of methyl ethyl ketone and 1.1 g of a polystyrene resin (manufactured by Sigma-Aldrich Co. LLC) to prepare a resin composition.
# The obtained resin composition was spin-coated on a glass substrate to form a coating film, and the obtained coating film was dried at 60° C. for 2 minutes to produce a resin film. […]
# • A: absorbance reduction rate of Amax was less than 5%. • B: absorbance reduction rate of Amax was 5% or more and less than 10%. • C: absorbance reduction rate of Amax was 10% or more and less than 50%. • D: absorbance reduction rate of Amax was 50% or more. • X: solubility was insufficient, so that the film cannot be produced, which was not evaluable.
Compound,λmax (maximal absorption wavelength) [1],Near infrared absorbing property [1],Solubility in solvent [2],Heat stability of resin composition [3]
Cc1ccc(N(c2ccc(C)cc2)c2ccc([N+](=C3C=CC(=[N+](c4ccc(N(c5ccc(C)cc5)c5ccc(C)cc5)cc4)c4ccc(N(c5ccc(C)cc5)c5ccc(C)cc5)cc4)C=C3)c3ccc(N(c4ccc(C)cc4)c4ccc(C)cc4)cc3)cc2)cc1.O=S(=O)([C-](S(=O)(=O)C(F)(F)F)S(=O)(=O)C(F)(F)F)C(F)(F)F.O=S(=O)([C-](S(=O)(=O)C(F)(F)F)S(=O)(=O)C(F)(F)F)C(F)(F)F [A-34],1211 nm,"A (Amax was 1,150 nm or more)",A (1 g or more of the compound was stably dissolved in 300 g of MEK),A (absorbance reduction rate of Amax was less than 5%)
N#Cc1ccc(N(c2ccc(C#N)cc2)c2ccc([N+](=C3C=CC(=[N+](c4ccc(N(c5ccc(C#N)cc5)c5ccc(C#N)cc5)cc4)c4ccc(N(c5ccc(C#N)cc5)c5ccc(C#N)cc5)cc4)C=C3)c3ccc(N(c4ccc(C#N)cc4)c4ccc(C#N)cc4)cc3)cc2)cc1.[O-][Cl+3]([O-])([O-])[O-].[O-][Cl+3]([O-])([O-])[O-] [A-9],1170 nm,"A (Amax was 1,150 nm or more)",A (1 g or more of the compound was stably dissolved in 300 g of MEK),A (absorbance reduction rate of Amax was less than 5%)
Cc1ccc(N(c2ccc(C)cc2)c2ccc([N+](=C3C=CC(=[N+](c4ccc(N(c5ccc(C)cc5)c5ccc(C)cc5)cc4)c4ccc(N(c5ccc(C)cc5)c5ccc(C)cc5)cc4)C=C3)c3ccc(N(c4ccc(C)cc4)c4ccc(C)cc4)cc3)cc2)cc1.c1ccc([B-](c2ccccc2)(c2ccccc2)c2ccccc2)cc1.c1ccc([B-](c2ccccc2)(c2ccccc2)c2ccccc2)cc1 [A-36],1215 nm,"A (Amax was 1,150 nm or more)",A (1 g or more of the compound was stably dissolved in 300 g of MEK),A (absorbance reduction rate of Amax was less than 5%)
CCCCc1ccc(N(c2ccc(CCCC)cc2)c2ccc([N+](=C3C=CC(=[N+](c4ccc(N(c5ccc(CCCC)cc5)c5ccc(CCCC)cc5)cc4)c4ccc(N(c5ccc(CCCC)cc5)c5ccc(CCCC)cc5)cc4)C=C3)c3ccc(N(c4ccc(CCCC)cc4)c4ccc(CCCC)cc4)cc3)cc2)cc1.[O-][Cl+3]([O-])([O-])[O-].[O-][Cl+3]([O-])([O-])[O-] [A-8],1210 nm,"A (Amax was 1,150 nm or more)",A (1 g or more of the compound was stably dissolved in 300 g of MEK),A (absorbance reduction rate of Amax was less than 5%)
N#Cc1ccc(N(c2ccc([N+](=C3C=CC(=[N+](c4ccc(N(c5ccc(C#N)c(F)c5)c5ccc(C#N)c(F)c5)cc4)c4ccc(N(c5ccc(C#N)c(F)c5)c5ccc(C#N)c(F)c5)cc4)C=C3)c3ccc(N(c4ccc(C#N)c(F)c4)c4ccc(C#N)c(F)c4)cc3)cc2)c2ccc(C#N)c(F)c2)cc1F [A-19],1165 nm,"A (Amax was 1,150 nm or more)",A (1 g or more of the compound was stably dissolved in 300 g of MEK),A (absorbance reduction rate of Amax was less than 5%)
Cc1cc(C)c(N(c2ccc([N+](=C3C=CC(=[N+](c4ccc(N(c5c(C)cc(C)cc5C)c5c(C)cc(C)cc5C)cc4)c4ccc(N(c5c(C)cc(C)cc5C)c5c(C)cc(C)cc5C)cc4)C=C3)c3ccc(N(c4c(C)cc(C)cc4C)c4c(C)cc(C)cc4C)cc3)cc2)c2c(C)cc(C)cc2C)c(C)c1 [A-3],–,"A (Amax was 1,150 nm or more)",A (1 g or more of the compound was stably dissolved in 300 g of MEK),A (absorbance reduction rate of Amax was less than 5%)

# — patent US20260022246A1, “COLORING AGENT COMPOSITION, FILM, OPTICAL FILTER, AND NEAR INFRARED ABSORBING COMPOUND” (FUJIFILM Corporation, priority 2023, published 2026)
